{"source": "paper PMC10899790", "about": "“A bromodomain-independent mechanism of gene regulation by the BET inhibitor JQ1: direct activation of nuclear receptor PXR” (Nucleic Acids Research, 2023)", "key": {"[1]": {"molecular_target": "T1, human PXR (Homo sapiens, UniProt O75469)", "T1 sequence (O75469 1-434)": "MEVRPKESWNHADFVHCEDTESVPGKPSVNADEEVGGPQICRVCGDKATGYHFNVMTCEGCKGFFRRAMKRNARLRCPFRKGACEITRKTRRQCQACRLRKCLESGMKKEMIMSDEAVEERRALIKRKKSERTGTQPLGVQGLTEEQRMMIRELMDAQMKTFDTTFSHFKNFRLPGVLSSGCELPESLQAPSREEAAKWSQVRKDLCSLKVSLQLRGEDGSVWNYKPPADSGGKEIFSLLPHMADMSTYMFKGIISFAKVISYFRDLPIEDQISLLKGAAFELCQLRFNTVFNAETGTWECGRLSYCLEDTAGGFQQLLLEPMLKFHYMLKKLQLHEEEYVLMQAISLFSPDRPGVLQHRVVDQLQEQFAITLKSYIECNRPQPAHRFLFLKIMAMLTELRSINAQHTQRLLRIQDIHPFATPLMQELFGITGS", "test": "PXR transactivation assay (CYP3A4-luciferase reporter)", "description": "Assays were performed similarly as previously described with minor modifications ([30–32]). HepG2 cells (7.5 × 10^5/well) were plated in six-well tissue culture-treated plates. The following day, cells were co-transfected with pGL3-CYP3A4-luc (2 μg/well), pRL-CMV (200 ng/well) and 100 ng/well of either empty vector (pcDNA3), pcDNA3-FLAG-PXR, pCMV6-mPXR or pGL4.53-PGK-PXR using Lipofectamine 3000 (Thermo Fisher Scientific). Twenty-four hours after transfection, cells were trypsinized and suspended in phenol red-free DMEM (Thermo Fisher Scientific) supplemented with 5% charcoal/dextran-treated FBS (HyClone), and 1 × 10^4 cells/well in 25 μl media were added to white 384-well plates. […] After 24 h, the Dual-Glo Luciferase Assay System (Promega) and EnVision microplate reader (PerkinElmer) were used to measure firefly and Renilla luciferase activities. CMV-driven Renilla luciferase was used as an indicator of general transcriptional modulation by the test compounds and is plotted as fold change (FC) relative to DMSO controls. Assays utilizing pGL4.54[luc2/TK], pGL4.53[luc2/PGK], or pGL4.13[luc2/SV40] were similarly performed and normalized. For the PXR-responsive CYP3A4-luciferase reporter, the measured relative light units (RLU) were normalized for each well using equation (1),\nRLUT0901317 represents the measured RLU from wells containing 1 μM T0901317. For mPXR assays, 5 μM PCN was used in place of T0901317."}, "[2]": {"tested_on": "PXR", "test": "RNA induction in HepaRG: PXR RNA (RT-qPCR)", "format": "cell-based, human", "details": "differentiated HepaRG, 24 h; FC relative to DMSO"}, "[3]": {"tested_on": "CYP3A4", "test": "RNA induction in HepaRG: CYP3A4 mRNA (RT-qPCR)", "details": "differentiated HepaRG, 24 h"}, "[4]": {"tested_on": "HepG2 cells", "test": "Cytotoxicity assay (CellTiter-Glo)", "format": "cell-based, human", "details": "HepG2, 24 h", "description": "HepG2 cells (1 × 10^4/well in 25 μl phenol red-free DMEM supplemented with 5% charcoal/dextran-treated FBS) were plated and treated as in the transactivation assays. After 24 h compound treatment, the CellTiter-Glo Luminescent Cell Viability Assay (Promega) and an EnVision microplate reader were used to assess cytotoxicity. DMSO wells with cells served as negative controls, and wells without cells served as positive controls. The averaged luminescence signal of the wells without cells was subtracted from the luminescence signals of all other wells, and the background subtracted values were normalized to DMSO-treated wells containing cells to obtain percent cell viability."}, "[5]": {"tested_on": "BET proteins", "design": "method as in PMID 20871596", "details": "cited from earlier work"}, "[6]": {"tested_on": "CMV promoter", "test": "CMV-Renilla luciferase reporter", "format": "cell-based, human", "details": "HepG2, 24 h; fold change relative to DMSO"}, "[7]": {"molecular_target": "T2, PXR LBD (Homo sapiens, UniProt O75469)", "T2 construct": "GST-PXR LBD protein (cat. # PV4841) were purchased from Thermo Fisher Scientific; purchased Thermo Fisher Scientific PV4841", "T2 sequence (O75469 146-433 limits assumed)": "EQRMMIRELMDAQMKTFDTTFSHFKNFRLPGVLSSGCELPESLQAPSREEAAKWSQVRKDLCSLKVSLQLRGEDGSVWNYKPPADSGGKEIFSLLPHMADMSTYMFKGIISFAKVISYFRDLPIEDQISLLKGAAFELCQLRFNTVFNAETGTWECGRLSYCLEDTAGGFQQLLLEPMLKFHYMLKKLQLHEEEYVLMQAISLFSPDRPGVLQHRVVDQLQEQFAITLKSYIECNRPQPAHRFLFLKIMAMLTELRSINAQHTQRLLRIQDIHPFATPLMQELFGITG", "test": "TR-FRET PXR LBD ligand binding assay", "details": "TR-FRET competition with BODIPY FL vindoline", "description": "The TR-FRET PXR LBD ligand binding assay measures binding of PXR ligands by competition with a fluorescently labeled ligand (BODIPY FL vindoline) (Supplementary Figure S3) and was performed as previously described with minor modifications ([24]). […] BODIPY FL vindoline (15 μl/well, 133.3 nM in assay buffer) was dispensed into 384-well low-volume black assay plates. An Echo 650 Acoustic Liquid Handler then dispensed 60 nl/well of compound stocks or DMSO."}}, "data": [{"smiles": "Cc1sc2c(c1C)C(c1ccc(Cl)cc1)=N[C@H](CC(=O)OC(C)(C)C)c1nnc(C)n1-2", "note": "[(−)-JQ1]", "values": [{"measurement": "activation of CYP3A4-luciferase reporter with PXR expressed from a PGK promoter", "setting": "[1]; HepG2, 24 h, PGK-driven PXR", "value": "retained activation of the CYP3A4-luciferase reporter"}, {"measurement": "activation of PXR-responsive CYP3A4-luciferase reporter", "setting": "[1]; human", "value": "activated the CYP3A4-luciferase reporter with similar potency but greater efficacy than JQ1"}, {"measurement": "PXR RNA expression", "setting": "[2]", "value": "much less than that observed with the BET inhibitors"}, {"measurement": "endogenous CYP3A4 mRNA expression", "setting": "[3]; FC relative to DMSO", "value": "more robustly induced CYP3A4 expression than JQ1"}, {"measurement": "endogenous CYP3A4 mRNA expression on co-treatment with SPA70", "setting": "[3]; co-treated with SPA70", "value": "without reducing CYP3A4 in the presence of SPA70"}, {"measurement": "cytotoxicity (cell viability)", "setting": "[4]", "value": "decreased cytotoxicity"}, {"measurement": "cytotoxicity (cell viability)", "setting": "[4]; listed as (-)-JQ1", "value": "less cytotoxic than JQ1"}, {"measurement": "binding to BET proteins", "setting": "[5]", "value": "does not bind BET proteins"}, {"measurement": "CMV-Renilla luciferase reporter expression", "setting": "[6]", "value": "only marginally induced the CMV-Renilla luciferase reporter at high concentrations"}, {"measurement": "binding to purified PXR LBD (binding potency)", "setting": "[7]", "value": "comparable to rifampicin in binding potencies"}]}]}
